From patent US6555356B2, “Methods for microbial regulation” (Unisearch Limited, priority 1995, dated 2003)
Values after ≈ are worked out from the molar mass of the structure shown. “Also recorded” adds a separate entry of the source.

What was measured:
Format in all cases: cell-based
strain V54 [1] = experiment: Marine isolate growth in liquid media, strain V54
Procedure: (§1) The effect on growth of Serratia liquefaciens by furanone compounds was also measured in liquid LB medium by comparing growth of cultures without the addition of compounds versus growth of cultures with added furanone compounds (100 μg/ml of compounds 1-13 (FIG. 3) in separate cultures). Growth was measured as optical density at 450 nm and followed over a 48 hr period.
(§2) Methods followed those described for Serratia liquefaciens (above). Inhibition of growth of these bacteria by furanones was assessed as above.

strain R130 [2] = experiment: Marine isolate swarming, strain R130
Procedure: (§3) Serratia liquefaciens was grown in liquid LB medium at room temperature to an optical density of 0.3 at 450 nm and stable inoculated onto LB agar (0.7% agar) plates. Plates were incubated at 30° C. and observed regularly for swarming behaviour. The effect on swarming of furanone compounds was tested by adding (after sterilisation and cooling of the agar) compounds 1-13 (FIG. 3). in the concentration range of 5-100 μg/ml, to the plates.
as §2

strain R12 [3] = experiment: Marine isolate growth in liquid media, strain R12
Procedure: as §1, §2

strain R86 [4] = experiment: Marine isolate growth in liquid media, strain R86
Procedure: as §1, §2

strain R12 [5] = experiment: Marine isolate swarming, strain R12
Procedure: as §3, §2

strain R86 [6] = experiment: Marine isolate swarming, strain R86
Procedure: as §3, §2

strain V54 [7] = experiment: Marine isolate swimming, strain V54
Vibrio harveyi [8] = experiment: Growth of Vibrio harveyi
Procedure: as §1
(§4) Initial assays for both strains of Vibrio were streaked onto LB agar plates (with 2% NaCl) with and without furanone compounds 1-4 at 5-100 μg/ml. Bioluminescence of the plates was visually assessed after 24 hours of incubation at room temperature. In subsequent assays, both strains were grown in liquid culture in the presence of furanones. Bioluminescence was assayed via a luminometer. The effects of furanones on growth of both strains were assayed as above.

strain V21 [9] = experiment: Marine isolate growth in liquid media, strain V21
Procedure: as §1, §2

strain V21 [10] = experiment: Marine isolate swimming, strain V21
strain V21 [11] = experiment: Marine isolate swarming, strain V21
Procedure: as §3, §2

Erwinia carotovora [12] = experiment: Growth of Erwinia carotovora
strain V55 [13] = experiment: Marine isolate growth in liquid media, strain V55
Procedure: as §1, §2

Erwinia carotovora [14] = experiment: Erwinia carotovora (exoenzyme) assay on potato slices
Procedure: Inoculants from precultured E. carotovora were added to slices of potatoes. Degradation (softening and browning) of the potato was compared on slices with and without furanone compounds (3 and 4).

Serratia liquefaciens [15] = experiment: Serratia liquefaciens swarming assay; details: 5-100 μg/ml in LB agar (0.7%) plates
Procedure: as §3

strain V55 [16] = experiment: Marine isolate swarming, strain V55
Procedure: as §3, §2

Proteus mirabilis [17] = experiment: Proteus mirabilis growth; details: concentrations inhibitory to swarming, 37 C
Procedure: as §2

Pseudomonas aeruginosa [18] = experiment: Pseudomonas aeruginosa (elastase) assay; details: 100 μg/ml in elastin agar
Procedure: (§5) Inoculants from precultures were streaked onto Peptone-Tryptic Soy Broth agar containing 0.3% elastin. Plates were incubated at 37° C. and observed for hydrolysis of the elastin. The effect of furanone compounds was assess by adding compounds 1-4 (100 μg/ml) to the plates and comparing zones of hydrolysis in plates with and without the compounds.

Proteus mirabilis [19] = experiment: Proteus mirabilis swarming assay; details: LB10 with 1.5% agar
strain V54 [20] = experiment: Marine isolate swarming, strain V54
Procedure: as §3, §2

Serratia liquefaciens [21] = experiment: Serratia liquefaciens exoprotease assay (skim milk agar clearing zones); details: 100 μg/ml; for exoprotease activity of the wild type: Serratia liquefaciens wild type; for Effect on HSL phenotype: exoenzymes (exoprotease production): Serratia liquefaciens
Procedure: For assays of production of exoproteases by Serratia liquifaciens the bacteria were cultured as above and inoculated in liquid LB medium. The effects of furanone compounds were tested by adding compounds 3 and 4 (FIG. 3) at 100 μg/ml. Aliquots were withdrawn from the cultures, centrifuged and sterile filtered. Sixty microliters of supernatant were added to wells in skim milk agar plates (1.5% skim milk in M9 medium). Plates were incubated at room temperature and observed for clearing zones around the wells.

Serratia liquefaciens [22] = experiment: Growth of Serratia liquefaciens in liquid LB medium; details: 100 μg/ml
Procedure: as §1

strain R86 [23] = experiment: Marine isolate swimming, strain R86
Pseudomonas aeruginosa [24] = experiment: Growth of Pseudomonas aeruginosa on plates; details: 100 μg/ml
Procedure: as §5

strain R130 [25] = experiment: Marine isolate growth in liquid media, strain R130
Procedure: as §1, §2

Proteus mirabilis [26] = experiment: Proteus mirabilis swimming; details: concentrations inhibitory to swarming, LB10 with 0.3% agar
strain V55 [27] = experiment: Marine isolate swimming, strain V55
strain R12 [28] = experiment: Marine isolate swimming, strain R12
[29] = system: Chromobacterium violencia; experiment: Growth of Chromobacterium violencia; details: 100 μg/ml
Procedure: as §1
A mutant of Chromobacterium violencia negative for the HSL auto inducer was used in the assay. The strain was pour plated in LB medium at high density and wells were punched after the media had set. Sterile, filtered supernatants from various HSL producing strains were added to the wells. Plates were incubated at 30° C. and observed for the formation of purple zones (due to […]) around the wells. The effects of furanone compounds 1 and 2 (FIG. 3) were assessed by running this assay on plates of LB medium containing furanone compounds at a concentration of 100 μg/ml. The effects of the compounds on growth of Chromobacterium were assessed as above.

Vibrio fisheri [30] = experiment: Growth of Vibrio fisheri
Procedure: as §1, §4

strain R130 [31] = experiment: Marine isolate swimming, strain R130
Vibrio harveyi [32] = experiment: Vibrio harveyi bioluminescence assay; details: 100 μg/ml, visual inspection of agar plates
Procedure: as §4

Candida albicans = experiment: Fungal growth inhibition zone assay, Candida albicans
Procedure: (§6) In addition to the tests described above, the effects of selected compounds of the general formula 2 on growth of bacteria, one yeast (Candida albicans) and one fungus (Helminthosporium sp.) were assessed. Bacteria were grown in liquid media in the presence of different concentrations of furanones and growth measured via changes in optical density (OD). Fungal assays were done by inoculating agar plates with spores. These plates contained different concentrations of furanone compounds in wells within the plates. Zones of inhibition around these wells were measured after 48 hours.

Vibrio fisheri [33] = experiment: Vibrio fisheri bioluminescence assay; details: 100 μg/ml, visual inspection of agar plates
Procedure: as §4

Helminthosporium sp. = experiment: Fungal growth inhibition zone assay, Helminthosporium sp.
Procedure: as §6

| SMILES | Minimum inhibitory concentration, Growth (strain V54 [1]) | Minimum inhibitory concentration, Swarming (strain R130 [2]) | Minimum inhibitory concentration, Growth (strain R12 [3]) | Minimum inhibitory concentration, Growth (strain R86 [4]) | Minimum inhibitory concentration, Swarming (strain R12 [5]) | Minimum inhibitory concentration, Swarming (strain R86 [6]) | Minimum inhibitory concentration, Swimming (strain V54 [7]) | Effect on bacterial growth (Vibrio harveyi [8]) | Minimum inhibitory concentration, Growth (strain V21 [9]) | Minimum inhibitory concentration, Swimming (strain V21 [10]) | Minimum inhibitory concentration, Swarming (strain V21 [11]) | Effect on bacterial growth (Erwinia carotovora [12]) | Minimum inhibitory concentration, Growth (strain V55 [13]) | Effect on HSL phenotype: exoenzymes (Erwinia carotovora [14]) | Effect on HSL phenotype: swarming (Serratia liquefaciens [15]) | Minimum inhibitory concentration, Swarming (strain V55 [16]) | Effect on HSL phenotype: elastase (Pseudomonas aeruginosa [18]) | Minimum inhibitory concentration, Swarming (strain V54 [20]) | exoprotease activity of the wild type (Serratia liquefaciens [21]) | Effect on HSL phenotype: exoenzymes (exoprotease production) (Serratia liquefaciens [21]) | other results |
| --- | --- | --- | --- | --- | --- | --- | --- | --- | --- | --- | --- | --- | --- | --- | --- | --- | --- | --- | --- | --- | --- |
| CCCC(O)C1=C(Br)C(=CBr)OC1=O (stereo not shown) [Compound 4] | 25 mg/L (≈ 76.7 µM) | 5 mg/L (≈ 15.3 µM) | 25 mg/L (≈ 76.7 µM) | 25 mg/L (≈ 76.7 µM) | 5 mg/L (≈ 15.3 µM) | 5 mg/L (≈ 15.3 µM) | 5 mg/L (≈ 15.3 µM) | no effect | 5 mg/L (≈ 15.3 µM) | 5 mg/L (≈ 15.3 µM) | 5 mg/L (≈ 15.3 µM) | without inhibiting; also recorded: no effect | 25 mg/L (≈ 76.7 µM) | decreases; also recorded: inhibit | inhibit | 5 mg/L (≈ 15.3 µM) | inhibited; also recorded: delay/ | 5 mg/L (≈ 15.3 µM) | 3 and 4 decreases | inhibit; also recorded: decrease/ | Effect on growth (Proteus mirabilis [17]): did not affect; Effect on swarming (Proteus mirabilis [19]): inhibited; Effect on bacterial growth (Serratia liquefaciens [22]): no effect; Minimum inhibitory concentration, Swimming (strain R86 [23]): 25 mg/L (≈ 76.7 µM); Effect on bacterial growth (Pseudomonas aeruginosa [24]): no detectable effect; Minimum inhibitory concentration, Growth (strain R130 [25]): 25 mg/L (≈ 76.7 µM); Effect on swimming (Proteus mirabilis [26]): did not affect; Minimum inhibitory concentration, Swimming (strain V55 [27]): 5 mg/L (≈ 15.3 µM); Minimum inhibitory concentration, Swimming (strain R12 [28]): 25 mg/L (≈ 76.7 µM); Effect on bacterial growth [29]: inhibit; Effect on bacterial growth (Vibrio fisheri [30]): no effect; Minimum inhibitory concentration, Swimming (strain R130 [31]): 25 mg/L (≈ 76.7 µM) |
| CCCC(OC(C)=O)C1=C(Br)C(=CBr)OC1=O (stereo not shown) [Compound 3] | 25 mg/L (≈ 67.9 µM) | 25 mg/L (≈ 67.9 µM) | >50 mg/L | >50 mg/L | 5 mg/L (≈ 13.6 µM) | 5 mg/L (≈ 13.6 µM) | 5 mg/L (≈ 13.6 µM) | no effect | 5 mg/L (≈ 13.6 µM) | 25 mg/L (≈ 67.9 µM) | 5 mg/L (≈ 13.6 µM) | no effect | 5 mg/L (≈ 13.6 µM) | no effect | inhibit | 5 mg/L (≈ 13.6 µM) | inhibited; also recorded: delay/ | 5 mg/L (≈ 13.6 µM) | 3 and 4 decreases | inhibit; also recorded: decrease/ | Effect on HSL phenotype: luminescence (Vibrio harveyi [32]): inhibit; Effect on bacterial growth (Serratia liquefaciens [22]): no effect; Minimum inhibitory concentration, Swimming (strain R86 [23]): >50 mg/L; Effect on bacterial growth (Pseudomonas aeruginosa [24]): no effect; Minimum inhibitory concentration, Growth (strain R130 [25]): 25 mg/L (≈ 67.9 µM); Minimum inhibitory concentration, Swimming (strain V55 [27]): 5 mg/L (≈ 13.6 µM); Minimum inhibitory concentration, Swimming (strain R12 [28]): 50 mg/L (≈ 136 µM); width of inhibition zone (Candida albicans; amount added 0.1 μg): 0 mm; width of inhibition zone (Candida albicans; amount added 1 μg): 0 mm; width of inhibition zone (Candida albicans; amount added 10 μg): 1-2 mm; width of inhibition zone (Candida albicans; amount added 100 μg): 2-3 mm; Effect on HSL phenotype: luminescence (Vibrio fisheri [33]): inhibit; Effect on bacterial growth (Vibrio fisheri [30]): no effect; width of inhibition zone (Helminthosporium sp.; amount added 0.1 μg): 0 mm; width of inhibition zone (Helminthosporium sp.; amount added 1 μg): 0 mm; width of inhibition zone (Helminthosporium sp.; amount added 10 μg): 6-9 mm; width of inhibition zone (Helminthosporium sp.; amount added 100 μg): 6-20 mm; Minimum inhibitory concentration, Swimming (strain R130 [31]): >50 mg/L |
